Source: patent US8741319B2, “Methods and compositions for treating anxiety disorders or symptoms thereof” (Pondera Biotechnologies Inc., priority 2009, dated 2014)
“Also recorded” adds a separate entry of the source.

Columns and labels:
humans = assay: Hot-water finger-immersion induced pain trials (Example 1); assay type: in vivo, human; details: for undesirable side effects, first phase: 18 subjects, rolipram 50 μg, forskolin 200 mg, magnesium sulfate 2 g/5 g, caffeine 200 mg, each given within two-agent formulations; for side effects / complaints, second phase: 60 subjects, caffeine 50 mg, theophylline 300 mg, ULDN 5 μg, magnesium sulfate 750 mg, alone or combined; for pain thresholds and tolerance as compared to baseline latencies: index finger in 130° F. water, single dose, not blinded as to condition
Procedure: For these trials, a hot-water finger-immersion pain paradigm was used, measuring both pain threshold and tolerance. The index finger of the non-dominant hand was submerged in 130° F. water, and the time to the experience of pain (threshold) and the need to withdraw (tolerance) were measured. Baseline scores were compared to those obtained under experimental conditions. Experimental conditions were not blinded for this study.
For the preliminary part of this study, 18 subjects (10 males, 8 females; ages 27-86) were given each of the following single-dose formulations on separate days, to determine the best doses for pain reduction and side-effect profiles:
The same induced pain paradigm was used for the second phase of this study. 60 subjects (38 males, 22 females, ages 18-86), including all of the subjects in the first phase of the study, participated in the study. All subjects were administered each of the following formulations in a single dose, on separate days; while 18 of these subjects (10 males, 8 females) were given these formulations using a twice daily administration over the course of 3 consecutive days. The following formulations were administered to each subject to assess the effect of each agent, as compared to baseline, as well as the synergistic impact of co-treatment: […]

Healthy volunteers = assay: Cold-pressor induced pain study (Example 8A); assay type: in vivo, human; details: 12 subjects, blinded, within-subject
Procedure: In addition to the hot-water finger immersion studies described above, two Jeio Tech cold-pressor testing units were purchased since this methodology represents the state-of-the art in induced pain research.
Following several preliminary multi-site trials using a wide variety of agents, doses, and formulations, a cold-pressor induced pain study was conducted in order to determine the impact of specific agents on the experience of pain threshold and tolerance. Healthy volunteers were recruited who were not taking any relevant medications or supplements, resulting in a total of 12 subjects (7 men, 5 women; ages 18-86). During the initial phase of this study, the following agents and doses were administered to subjects and pain threshold and tolerance latencies were assessed. […] Subjects were blinded as to each condition. Active agents were compared to each subject's baseline and placebo latencies, using a within-subject design. […]

[1] = tested on: patients in psychotherapy suffering from various Distress Dysfunction conditions; assay: 10 month trial, agents alone vs combined, 19 psychotherapy patients (Example 5); details: for therapeutic benefits on Distress Dysfunction symptoms: 19 patients, 2 weeks per agent or formulation, agents not identified to patients
Procedure: To determine the relative benefits of administering agents alone as compared to their combined synergistic benefits, a trial was conducted over a 10 month period with 19 patients in psychotherapy suffering from various Distress Dysfunction conditions, including anxiety, obsessive-compulsive disorders, depression, drug and alcohol addictions, behavioral addictions, psychogenic and neuropathic pain, eating disorders, and sexual dysfunctions.
Over the course of 8 weeks, each patient was administered all of the individual agents. During the next 8 weeks, each patient rotated through the following formulations, each given for a 2 week period: […]
All patients already on an SSRI or SNRI continued on this medication in combination with ULDN.

[2] = tested on: outpatient psychotherapy patients with various forms of Distress Dysfunction; assay: Clinical case studies, outpatient psychotherapy patients (Example 8B); assay type: in vivo, human; details: 5 or 125 μg once daily within formulations
Procedure: All treatment was unblinded, and explained as novel formulations for Distress Dysfunction. […] Synergistic Enhancers were often included in the formulations, particularly SSRI and SNRI medications that the patients were typically taking prior to adding the experimental formulations (about 25% of patients). For those patients already on an SSRI or SNRI, the following daily doses were used, once the patient was stabilized on the co-treatment formulation: escitalopram (10 mg, once daily), fluoxetine (20 mg, once daily), citalopram (20 mg, once daily), or venlafaxine (75 mg, once daily). For most patients, this was either the same or lower dose than previously prescribed. If the patient was not already on an SSRI or SNRI, one or more Synergistic Enhancers were added to the formulation for more serious conditions, including 5HTP (50 mg, twice daily), SAMe (200 mg, once daily), PharmaGABA (200 mg, once daily), and tyrosine (500 mg, once daily) (about 18% of patients). Ten pain patients began the treatment program using a prescription narcotic pain medication. […] As an alternative to narcotic pain medications, NSAIDs, especially white willow bark (250 mg, twice daily) were added to the formulation (about 10% of patients). […]

subjects = assay: Hot-water finger-immersion pain threshold/tolerance, five subjects (Example 4); assay type: in vivo, human; details: separate testing sessions
males with ADHD = assay: Attention-Deficit Disorder case studies (Example 10); assay type: in vivo, human; details: for improvement of ADHD behavior and attention: single case studies (males)
Procedure: To assess the therapeutic benefit of the novel cotreatment formulations of the invention with Attention-Deficit Disorders, three ongoing case studies are being conducted, one focused on the use of stimulants and the other based on “nutriceuticals.”
A person with severe uncontrolled ADHD has had serious problems with their inappropriate behaviors, emotions, and attitudes, both at school and at home, for more than 8 years. […] NAC (600 mg, twice daily) was added to the ongoing medication. […] The young person was able to sit quietly for longer periods of time and was clearly more cooperative and socially appropriate. […] Increased improvement has been observed over the past month, and the cotreatment formulation is being continued.
A person with moderate ADHD has had difficulties paying attention at school and cooperating at home. They have never been given prescription medications for the problem, and behavioral interventions have not been successful. […] Then, NAC (600 mg, twice daily), magnesium sulfate (500 mg, twice daily), and ginkgo biloba (120 mg, once daily) were added to the ALC. […] Progress has been steadily improving, using this novel cotreatment formulation during this 3 week trial, which is ongoing.
A person with severe ADHD has had problems in all aspects of their life due to this disorder. Despite above average intelligence, they were unable to complete high school. After dropping out of school, they were able to earn a GED. Over time, they were unable to hold regular employment. […] They will continue this co-treatment formulation, given its obvious benefits.

In the case of `C=C[C@@]1(C)CC(=O)[C@]2(O)[C@@]3(C)[C@@H](O)CCC(C)(C)[C@@H]3[C@H](O)[C@H](OC(C)=O)[C@@]2(C)O1` [Forskolin], the “undesirable side effects, first phase” value (humans) is reported as “produced mild agitation for several subjects”.

With `COc1ccc(C2CNC(=O)C2)cc1OC1CCCC1` (centres unmarked) [Rolipram, rolipram] the “undesirable side effects, first phase” value (humans) was “produced a queasy sensation for several of the subjects” and the side effects (humans; one subject took 250 μg of rolipram) was “experienced nausea, vomiting, and diarrhea”.

In the case of `COc1cccc(C2(O)CCCCC2CN(C)C)c1` (centres unmarked) [Tramadol, tramadol], the “pain threshold and tolerance latencies vs baseline and placebo, agents administered alone” value (Healthy volunteers) is reported as “did not generally exhibit analgesia on the cold pressor”.

With `O=C1CC[C@@]2(O)[C@H]3Cc4ccc(O)c5c4[C@@]2(CCN3CC2CC2)[C@H]1O5` [ULDN, naltrexone] the “side effects / complaints, second phase” value (humans) was “had neither benefit nor side effects”, the “therapeutic benefits on Distress Dysfunction symptoms” value (shortened to “therapeutic benefits”) ([1]; once daily) was “nearly half of the patients experienced no effect from ULDN alone” and the “improvement in symptoms in patients on ongoing SSRI or SNRI medication” value ([1]; ULDN 5 μg added, patients on Lexapro, Prozac, Paxil or Effexor) was 10 patients had dramatic improvement in their symptoms. The “consistency of benefit by naltrexone dose” value [2] was “the benefits from using the relatively higher dose (125 micrograms) were more consistent within and among patients”.

With `CC(=O)Nc1ccc(O)cc1` [acetaminophen] the “increase in pain threshold/tolerance (over baseline)” value (subjects) was “in order of greatest pain relief, was (3), then (2) then (1)”, the “therapeutic benefits” value ([1]; once daily) was “no therapeutic benefits were reported or observed” and the “maintenance treatment, remaining six months of the study” value ([1]; each patient on the formulation that worked best) was “used effectively by four pain patients”. The increased distress symptoms ([1]; human, in vivo) was “at least half of the patients reported some degree of increased distress symptoms” and the “pain threshold and tolerance latencies vs baseline and placebo, agents administered alone” value (Healthy volunteers) was “no more effective than placebo in the cold pressor paradigm”.

For `CC(=O)O[C@H](CC(=O)[O-])C[N+](C)(C)C` [acetyl-L-carinitine], the “improvement of ADHD behavior and attention” value (males with ADHD) was “no observable benefits”.

For `CC(=O)Oc1ccccc1C(=O)O` [aspirin], the “increase in pain threshold/tolerance (over baseline)” value (subjects) was “showed no change in pain threshold when administered alone” and the “pain threshold and tolerance latencies vs baseline and placebo, agents administered alone” value (Healthy volunteers) was “no more effective than placebo in the cold pressor paradigm”.

`Cn1c(=O)c2c(ncn2C)n(C)c1=O` [caffeine] was tested, and the “undesirable side effects, first phase” value (humans) was “produced mild agitation for several subjects”, the “side effects / complaints, second phase” value (humans) was “complained of these symptoms when given these drugs alone” and the “pain thresholds and tolerance as compared to baseline latencies” value (humans) was “trend toward increased pain sensitivity (hyperalgesia)”. The increased distress symptoms ([1]; agent administered alone, once daily, 2 weeks) was “at least half of the patients reported some degree of increased distress symptoms” and the “pain threshold and tolerance latencies vs baseline and placebo, agents administered alone” value (Healthy volunteers) was “tended to result in shorter pain tolerance latencies”.

In the case of `N[C@@H](CCC(=O)O)C(=O)O` [glutamic acid], the “pain threshold and tolerance latencies vs baseline and placebo, agents administered alone” value (Healthy volunteers) is reported as “showed clear hyperalgesic effects when administered alone; also recorded: tended to result in shorter pain tolerance latencies”.

For `CC(C)Cc1ccc(C(C)C(=O)O)cc1` (centres unmarked) [ibuprophen], the “pain threshold and tolerance latencies vs baseline and placebo, agents administered alone” value (Healthy volunteers) was “no more effective than placebo in the cold pressor paradigm”.

In the case of `O=S(=O)([O-])[O-].[Mg+2]` [magnesium sulfate], the “undesirable side effects, first phase” value (humans) is reported as “produced mild queasy feelings for several subjects” and the “side effects / complaints, second phase” value (humans) is reported as “had neither benefit nor side effects”.

`COC(=O)C(c1ccccc1)C1CCCCN1` (centres unmarked) [methylphenidate] was tested, and the side effects (males with ADHD; single case studies) was “produced mild restlessness, sleep difficulties, and reduced appetite; also recorded: several undesirable side-effects, including insomnia, anorexia, and agitation” and the “improvement of ADHD behavior and attention” value (males with ADHD) was “only modest improvements; also recorded: almost no benefit”.

With `COc1ccc2c3c1O[C@H]1C(=O)CC[C@@]4(O)[C@@H](C2)N(C)CC[C@]314` [oxycodone (5 mg), oxycodone] the “pain threshold and tolerance latencies vs baseline and placebo, agents administered alone” value (Healthy volunteers) was “consistently showed this effect” and the “pain threshold and tolerance latencies vs baseline and placebo, agents administered alone” value (Healthy volunteers; listed as lower dose oxycodone) was “did not generally exhibit analgesia on the cold pressor”.

With `O=C(Nc1c(Cl)cncc1Cl)c1ccc(OC(F)F)c(OCC2CC2)c1` [roflumilast] the “therapeutic benefits” value ([1]; once daily) was “no therapeutic benefits were reported or observed”, the increased distress symptoms ([1]; human, in vivo) was “at least half of the patients reported some degree of increased distress symptoms” and the “pain threshold and tolerance latencies vs baseline and placebo, agents administered alone” value (Healthy volunteers) was “showed clear hyperalgesic effects when administered alone; also recorded: tended to result in shorter pain tolerance latencies”.

For `Cn1c(=O)c2[nH]cnc2n(C)c1=O` [theophylline], the “side effects / complaints, second phase” value (humans) was “complained of these symptoms when given these drugs alone”, the “pain thresholds and tolerance as compared to baseline latencies” value (humans) was “trend toward increased pain sensitivity (hyperalgesia)” and the “pain threshold and tolerance latencies vs baseline and placebo, agents administered alone” value (Healthy volunteers) was “tended to result in shorter pain tolerance latencies”.
